# Where “and” joins values, the source holds several entries; their conditions need not be identical. Identical values can stand only once. Like-named read-outs stand apart in the source and are kept apart here.
# How the values were obtained:
# dopamine transporter = assay: Blocking studies in rats (pretreatment or co-injection with competing agent); type: in vivo, Male Sprague-Dawley rats; conditions: for ST/CB ratio after pretreatment with haldol (haloperidol) / ST/CB ratio after pretreatment with β-CIT (RTI-55): 60 min, pretreated 1 mg/kg iv, 5 min before tracer; for ST/CB ratio, control rats of blocking study: 60 min post-injection, no pretreatment
# Description: (§1) Regional brain distribution in rats was obtained after an injection of 1.19a, 1.19b, 1.20a, 1.20b or 1.21. Samples from different brain regions (cortex, striatum, hippocampus, and cerebellum) were dissected, weighed and counted, and the percentage dose per gram of sample was calculated by comparing the sample counts with the count of the diluted initial dose. The uptake ratio of each region was obtained by dividing the percentage dose per gram of that region by that of the cerebellum. For blocking studies, rats were injected with either β-CIT or haloperidol (iv, 1 mg/Kg) 5 min prior to injection of 1.19a. The rats were dissected and brain tissue samples were counted as described above. The specific uptake of the compound was expressed as ratio of ST/CB (% dose/g of striatum divided by the same of cerebellum).
# as §1, with “3.24 to 3.34.” for “1.19a, 1.19b, 1.20a, 1.20b or 1.21.”, “3.25.” for “1.19a.”, “above.” for “above. The specific uptake of the compound was expressed as ratio of ST/CB (% dose/g of striatum divided by the same of cerebellum).”
# dopamine transporters = dopamine transporters (Rattus norvegicus, UniProt P23977); type: in vivo, Male Sprague-Dawley rats; conditions: rats, iv
# Chain of dopamine transporters (P23977 whole entry): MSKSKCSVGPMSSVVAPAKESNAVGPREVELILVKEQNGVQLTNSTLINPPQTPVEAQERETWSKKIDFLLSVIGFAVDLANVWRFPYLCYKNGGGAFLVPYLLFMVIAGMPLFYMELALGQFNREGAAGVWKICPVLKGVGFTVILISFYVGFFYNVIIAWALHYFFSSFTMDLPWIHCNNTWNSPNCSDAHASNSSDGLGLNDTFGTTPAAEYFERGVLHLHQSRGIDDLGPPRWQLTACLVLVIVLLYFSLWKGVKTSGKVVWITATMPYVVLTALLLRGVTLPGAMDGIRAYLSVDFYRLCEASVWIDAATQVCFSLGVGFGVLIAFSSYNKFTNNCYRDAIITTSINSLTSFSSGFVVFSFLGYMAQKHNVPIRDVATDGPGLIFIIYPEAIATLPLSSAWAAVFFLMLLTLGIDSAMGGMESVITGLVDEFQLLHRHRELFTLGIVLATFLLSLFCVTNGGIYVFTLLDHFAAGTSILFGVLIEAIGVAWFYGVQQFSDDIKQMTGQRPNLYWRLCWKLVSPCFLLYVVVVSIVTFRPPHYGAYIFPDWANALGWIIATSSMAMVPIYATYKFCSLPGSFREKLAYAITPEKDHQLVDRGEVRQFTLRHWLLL
# Description: For dopamine transporter imaging agents, the target area of the brain is the striatum, where dopamine transporters are highly concentrated. The cerebellum region is suitable for use as the background region, because it has no dopamine transporters. The specific uptake is measured by the ratio of % dose/gram of striatum divided by % dose/gram of cerebellum (ST/CB ratio)--the higher the value, the better the specific uptake, and the more promising as a dopamine transporter imaging agent.
# as §1
# The major criteria for determining the potential usefulness of in vivo dopamine transporter imaging agents are based on an animal biodistribution study. In this case, rats were used as an animal model. After an intravenous injection of the Tc-99m labeled compounds, the values of initial brain uptake (% dose/whole organ) at 2 minutes post intravenous injection are used to measure the ability to penetrate the intact blood-brain barrier. Compounds displaying higher brain uptake are the better agents (minimum requirement >0.1% dose in brain). The second criteria is the specific uptake in the striatum region of the brain, where dopamine transporters are located. The uptake value (% dose/gram) of the striatum (ST) is divided by the background area, cerebellum (CB; essentially devoid of dopamine transporter); the ratio of ST/CB is an indicator for specific uptake (minimum requirement for ST/CB >1.5). Five structurally similar tropane derivatives were examined in this biological study. (Tables 1.1 to 1.4).
# as §1, with “3.24 to 3.34.” for “1.19a, 1.19b, 1.20a, 1.20b or 1.21.”, “3.25.” for “1.19a.”, “above.” for “above. The specific uptake of the compound was expressed as ratio of ST/CB (% dose/g of striatum divided by the same of cerebellum).”
# [1] = Partition coefficient between 1-octanol (n-octanol) and buffer; type: physicochemical
# Description: (§2) Partition coefficients were measured by mixing each Tc-99m compound with 3 g each of 1-octanol and buffer (pH 7.0 or 7.4, 0.1 M phosphate) in a test tube. The test tube was vortexed for 3 minutes at room temperature, then centrifuged for 5 minutes. Two weighed samples (0.5 g each) from the 1-octanol and buffer layers were counted in a well counter. The partition coefficient was determined by calculating the ratio of cpm/g of octanol to that of buffer. Samples from the octanol layer were repartitioned until consistent partition coefficient values were obtained. The measurement was repeated 3 times.
# as §2, with “The partition coefficient was measured” for “Partition coefficients were measured”, “mixing the” for “mixing each”, “3 min” for “3 minutes”
compound,measurement,setting,value
CN1[C@H]2CC[C@@H]1[C@@H](C[N+]13CC[S][99Tc-]14(=[O])[S]CC[N]4CC3)[C@@H](c1ccc(Cl)cc1)C2 (stereo partly drawn) [Compound 1.19a],ST/CB ratio after pretreatment with haldol (haloperidol),dopamine transporter,2.6
same,ST/CB ratio after pretreatment with β-CIT (RTI-55),dopamine transporter,1.0
same,"ST/CB ratio, control rats of blocking study",dopamine transporter,2.66 and 2.6
same,"ST/CB ratio, 2 min",dopamine transporters; 2 min,0.93 ± 0.23
same,"ST/CB ratio, 30 min",dopamine transporters; 30 min,2.04 ± 0.18
same,"ST/CB ratio, 30 min","dopamine transporters; 30 min, listed as TRODAT-1",2.0
same,"ST/CB ratio, 60 min",dopamine transporters; 60 min,2.66 and 2.66 ± 0.01
same,"ST/CB ratio, 120 min",dopamine transporters; 120 min,3.90 ± 1.33
same,"ST/CB ratio, 240 min (4 hours)",dopamine transporters; 240 min,4.07
same,"ST/CB ratio, 360 min",dopamine transporters; 360 min,2.97 ± 0.14
same,"Partition coefficient (P.C.), 1-octanol/pH 7.0 buffer","[1]; 1-octanol/pH 7.0 phosphate buffer, listed as TRODAT-1",227
"COC(=O)C1C(c2ccc(Cl)cc2)CC2CCC1N2CC[S][99Tc-]12(=[O])[S]CC[N+]1(C)CC[S]2 [Compound 3.25, [^99m Tc] technetium, [methyl 3-(4-chlorophenyl)-8-(2-mercaptoethyl)-8-azabicyclo [3.2.1]octane-2-carboxylato-S][[2,2'-(methylimino)bis[ethanethiolato]](2-)-N,S,S']oxo]",ST/CB ratio after pretreatment with haldol (haloperidol),dopamine transporter,2.6
same,ST/CB ratio after pretreatment with β-CIT (RTI-55),dopamine transporter,1.0
same,"ST/CB ratio, control rats of blocking study",dopamine transporter,2.6
same,"Cerebellum, 2 min",dopamine transporters; 2 min,0.066 ± 0.017 % dose/g
same,"Cortex, 2 min",dopamine transporters; 2 min,0.060 ± 0.009 % dose/g
same,"Hippocampus, 2 min",dopamine transporters; 2 min,0.046 ± 0.005 % dose/g
same,"ST/CB ratio, 2 min",dopamine transporters; 2 min,0.82
same,"Striatum, 2 min",dopamine transporters; 2 min,0.054 ± 0.010 % dose/g
same,"Cerebellum, 30 min",dopamine transporters; 30 min,0.027 ± 0.006 % dose/g
same,"Cortex, 30 min",dopamine transporters; 30 min,0.038 ± 0.007 % dose/g
same,"Hippocampus, 30 min",dopamine transporters; 30 min,0.028 ± 0.008 % dose/g
same,"ST/CB ratio, 30 min",dopamine transporters; 30 min,2.2
same,"Striatum, 30 min",dopamine transporters; 30 min,0.060 ± 0.011 % dose/g
same,"Cerebellum, 60 min",dopamine transporters; 60 min,0.018 ± 0.001 % dose/g
same,"Cortex, 60 min",dopamine transporters; 60 min,0.026 ± 0.002 % dose/g
same,"Hippocampus, 60 min",dopamine transporters; 60 min,0.025 ± 0.003 % dose/g
same,"ST/CB ratio, 60 min",dopamine transporters; 60 min,3.5
same,"Striatum, 60 min",dopamine transporters; 60 min,0.063 ± 0.001 % dose/g
same,"Cerebellum, 120 min",dopamine transporters; 120 min,0.011 % dose/g
same,"Cortex, 120 min",dopamine transporters; 120 min,0.015 % dose/g
same,"Hippocampus, 120 min",dopamine transporters; 120 min,0.011 % dose/g
same,"ST/CB ratio, 120 min",dopamine transporters; 120 min,2.8
same,"Striatum, 120 min",dopamine transporters; 120 min,0.031 % dose/g
same,"Partition coefficient / lipophilicity, comparison in words",[1],appears to be the best among this series of three plus one Tc complexes
same,"Partition coefficient, n-octanol/buffer",[1]; n-octanol/phosphate buffer (pH 7.0 or 7.4),307

# Reference: patent publication US6241963A, “Dopamine and serotonin transporter ligands and imaging agents” (priority 1996, dated 2001)
